The species named for assay [1] is Rattus norvegicus. Nature of the assay: Tested to induce analgesia in hot plate test, expressed as percent of latency time (p<0.05). In kind it is functional. Background: Thermal pain tests record how soon the animal reacts.
Assay [2] concerns Rattus norvegicus. Nature of the assay: Tested for decrease in rectal temperature 5 min after ip injection. In kind it is functional.
The species entered for assay [3] is Rattus norvegicus. Nature of the assay: Tested for percent immobility time in the ring test, expressed as % of control (p<0.01). The class given is functional.
Assay [4] has as its system Rattus norvegicus. Nature of the assay: Tested for decrease in rectal temperature 10 min after ip injection. The class given is functional.
Assay [5] is filed under the species Rattus norvegicus. The experiment in a line: Tested to induce analgesia in hot plate test, expressed as percent of latency time. The class given is functional.
For a further assay, the target named is Cannabinoid receptor 1 (Rattus norvegicus, UniProt P20272). Nature of the assay: Concentration required to displace 0.4 nM [3H]SR-141,716A from CB1 receptor in rat brain preparations in the presence of 0.1 mM phenylmethyl sulfonyl fluoride. In kind it is tissue-based.
Chain of Cannabinoid receptor 1 (P20272 whole entry): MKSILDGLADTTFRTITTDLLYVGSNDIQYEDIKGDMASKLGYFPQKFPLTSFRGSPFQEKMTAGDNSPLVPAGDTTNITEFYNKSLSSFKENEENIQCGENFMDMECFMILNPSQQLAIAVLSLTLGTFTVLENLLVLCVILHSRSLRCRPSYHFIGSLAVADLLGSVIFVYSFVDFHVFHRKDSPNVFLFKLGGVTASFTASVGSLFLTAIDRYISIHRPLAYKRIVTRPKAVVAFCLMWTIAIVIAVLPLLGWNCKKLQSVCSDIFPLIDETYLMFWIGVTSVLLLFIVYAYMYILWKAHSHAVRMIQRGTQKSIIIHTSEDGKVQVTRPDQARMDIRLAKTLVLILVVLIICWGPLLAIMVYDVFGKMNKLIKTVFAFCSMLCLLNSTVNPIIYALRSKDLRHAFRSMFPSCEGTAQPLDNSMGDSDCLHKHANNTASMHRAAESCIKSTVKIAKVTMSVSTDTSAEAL

Take `CC/C=C\C/C=C\C/C=C\C/C=C\C/C=C\CCCC(=O)NCCc1ccc(O)c(O)c1`: the Latency time in the assay filed under Rattus norvegicus [1] amounted to 135%. This molecule gave a Rectal temperature in the assay on Rattus norvegicus [2] of 1.64 °C. In the assay listed under Rattus norvegicus [3], this molecule registered an Immobility time of 658%.
As to `CCCCC/C=C\C/C=C\C/C=C\CCCCCCC(=O)NCCc1ccc(O)c(O)c1`, the Rectal temperature came out at 0.43 °C with Rattus norvegicus [2] and 0.7 °C with Rattus norvegicus [4]. In the assay listed under Rattus norvegicus [3], this molecule showed an Immobility time of 693%. Moreover, in the assay listed under Rattus norvegicus [5], the Latency time is 129%.
The like results for `CC/C=C\C/C=C\C/C=C\C/C=C\CCCCC(=O)NCCc1ccc(O)c(O)c1` were, in that order, 1.45 °C, 1.67 °C, 570% and 120%.
Regarding `CC/C=C\C/C=C\C/C=C\C/C=C\C/C=C\C/C=C\CCC(=O)NCCc1ccc(O)c(O)c1`, the Latency time in the assay listed under Rattus norvegicus [1] is 296%. The Rectal temperature in the assay on Rattus norvegicus [2] amounted to 0.9 °C; in the assay on Rattus norvegicus [4], 1.1 °C. For the same molecule, the Immobility time in the assay filed under Rattus norvegicus [3] is recorded as 674%.
Broadly, the Ki is the equilibrium dissociation constant of an inhibitor or competing ligand from its target. `CC/C=C\C/C=C\C/C=C\C/C=C\C/C=C\CCCCCC(=O)NCCc1ccc(O)c(O)c1` displayed a Latency time in the assay listed under Rattus norvegicus [1] of 144%. For the same molecule, the values for the Rectal temperature in the assay with Rattus norvegicus [2] and with Rattus norvegicus [4] were 1.35 °C and 1.82 °C, respectively. In the assay filed under Rattus norvegicus [3], this molecule had an Immobility time of 610%. Also, the Ki at Cannabinoid receptor 1 is 1370 nM.
Regarding `CCCCC/C=C\C/C=C\CC/C=C\CCCC(=O)NCCc1ccc(O)c(O)c1`, the Rectal temperature in the assay on Rattus norvegicus [2] turned out to be 0.5 °C; with Rattus norvegicus [4], 0.4 °C. For the same molecule, the Immobility time in the assay listed under Rattus norvegicus [3] is on record as 528%. For the same molecule, the Latency time in the assay listed under Rattus norvegicus [5] is 162%. Moreover, on Cannabinoid receptor 1, the Ki worked out at 1720 nM.
`CCCCC/C=C\C/C=C\C/C=C\C/C=C\CCCC(=O)NCCO` [ANANDAMIDE]: the Rectal temperature in the assay with Rattus norvegicus [2] stood at 1.93 °C; in the assay with Rattus norvegicus [4], 2.53 °C. The same molecule returned an Immobility time in the assay listed under Rattus norvegicus [3] of 750%. This molecule also yielded a Latency time in the assay filed under Rattus norvegicus [5] of 165%.
In the assay filed under Rattus norvegicus [1], `CCCCC/C=C\C/C=C\C/C=C\C/C=C\CCCC(=O)NCCc1ccc(O)c(O)c1` [ARACHIDONOYL DOPAMINE] showed a Latency time of 222%. For the same molecule, the Rectal temperature in the assay on Rattus norvegicus [2] amounted to 1.35 °C; with Rattus norvegicus [4] it was 1.27 °C. In the assay listed under Rattus norvegicus [3], the Immobility time is on record as 500%. Besides, the Ki at Cannabinoid receptor 1 came to 380 nM.

Values taken from ChEMBL document CHEMBL1134181, “Synthesis and biological evaluation of novel amides of polyunsaturated fatty acids with dopamine” (Bioorg Med Chem Lett, 2001).
